How the values were obtained:
Assay type in all cases: cell-based
[1] = test system: hepatocellular carcinoma cell line Hep3B; assay: Growth inhibition of Hep3B cells, 48 hr treatment, Hoechst 33342 nucleus count (GE InCell 2200); conditions: Homo sapiens, Table 5, ratio of number of tumor cells treated with 10 μM compound to non-treated cells
Procedure, shortened: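 Compound exposure lasted 48 hr at 37° C, 5% CO2. Surviving nuclei were counted after Hoechst 33342 staining, and survival was expressed as the treated/non-treated cell number ratio, including the ratio at 10 μM compound.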

[2] = test system: Hep3B hepatocellular carcinoma cell line; assay: MTS cell viability assay (NCI-60 methodology), GI50/LC50, Hep3B; conditions: Homo sapiens, 48 h, Hep3B cells, 2 days incubation with compound
Description: (§1) The number of treated cells was determined by GE InCell 2200 system, and treated cells were stained with Hoechst 33342 which can reveal the remained nucleus in culture plate. The proportion of survival cells then were calculated with the ratio of treated/non-treated cells. The growth inhibition/cytotoxic effect of selected compounds were evaluated by the following protocol of NCI-60 screening platform. The human tumor cell lines are plating on a 96 well plate in a fixed density 24 hr prior compound treatment. Compounds with multiple concentrations are then added into each well for further 48 hr incubation. Cell viability is assessed by MTS method and the potency of compound is represented by GI50 and LC50 calculated by MTS result.
(§2) The cell viability measurement is based on the NCI-60 screening methodology (Nat. Rev. Cancer 6, 813-823, 2006). Briefly, cells are inoculated into 96-well plates at the optimal plating density. After 24 h, one of the two plates for each cell line is processed to determine a time zero cell viability (Tz) by MTS assay (Promega). Compounds are added over a 2-fold serial dilution to provide a total five drug concentrations plus DMSO control. Plates are incubated for a further 2 days, then measured cell viability by MTS assay [control growth (C) and test growth in the presence of drug at the five concentration levels (Ti)]. Growth inhibition of 50% (GI50) is calculated from [(Ti−Tz)/(C−Tz)]×100=50, which is the drug concentration resulting in a 50% reduction of control cells during the drug incubation. The LC50 is calculated from [(Ti−Tz)/Tz]×100=−50, which is the drug concentration resulting in a 50% reduction at the end of the drug treatment as compared to that at the beginning.
(§3) Herein, Hep3B refers to hepatocellular carcinoma cell line, SW480 refers to colon adenocarcinoma cell line, and NCI-H460 refers to human lung cancer cell line.

[3] = test system: SW480 colon adenocarcinoma cell line; assay: MTS cell viability assay (NCI-60 methodology), GI50/LC50, SW480; conditions: Homo sapiens, 48 h, SW480 cells, 2 days incubation with compound
Description: as §1, §2, §3

[4] = test system: NCI-H460 human lung cancer cell line; assay: MTS cell viability assay (NCI-60 methodology), GI50/LC50, NCI-H460; conditions: 48 h, NCI-H460 cells, 2 days incubation with compound
Description: as §1, §2, §3

With `CCCOc1ccc(-c2nc(NC(=O)c3ccc([N+](=O)[O-])s3)sc2Oc2cccc(C(F)(F)F)c2)cc1` [Compound 5-17, 5-nitro-N-(4-(4-propoxyphenyl)-5-(3-(trifluoromethyl)phenoxy)thiazol-2-yl)thiophene-2-carboxamide] the viability at 10 µM [1] was 37%, the GI50 [2] was 0.3 µM and the LC50 [2] was 1.6 µM. The GI50 [3] was 1.26 µM, the LC50 (NCI-60 lethal concentration, 50% net cell loss vs time zero) [3] was 2.41 µM and the GI50 [4] was 1.16 µM. The LC50 (concentration giving 50% net cell loss versus time zero, NCI-60 definition) [4] was 2.29 µM.

With `O=C(Nc1nc(-c2ccc(Br)cc2)c(Oc2ccccc2C(F)(F)F)s1)c1ccc([N+](=O)[O-])s1` [Compound 5-19, N-(4-(4-bromophenyl)-5-(2-(trifluoromethyl)phenoxy)thiazol-2-yl)-5-nitrothiophene-2-carboxamide] the viability at 10 µM [1] was 62%, the GI50 [2] was 1.79 µM and the LC50 [2] was 3.91 µM. The GI50 [3] was 1.51 µM, the LC50 (NCI-60 lethal concentration, 50% net cell loss vs time zero) [3] was 3.94 µM and the GI50 [4] was 2.88 µM.

Work on `CC(C)(C)c1ccc(-c2nc(NC(=O)c3ccc([N+](=O)[O-])s3)sc2Oc2ccc(F)cc2)cc1` [Compound 5-20, N-(4-(4-(tert-butyl)phenyl)-5-(4-fluorophenoxy)thiazol-2-yl)-5-nitrothiophene-2-carboxamide] yielded a viability at 10 µM [1] of 62%, a GI50 [2] of 0.79 µM and an LC50 [2] of 2.63 µM. The GI50 [3] was 0.88 µM, the LC50 (NCI-60 lethal concentration, 50% net cell loss vs time zero) [3] was 3.73 µM and the GI50 [4] was 2.76 µM. The LC50 (concentration giving 50% net cell loss versus time zero, NCI-60 definition) [4] was 8.34 µM.

Molecule `CC(C)(C)c1ccc(-c2nc(NC(=O)c3ccc([N+](=O)[O-])s3)sc2Oc2cccc(F)c2)cc1` [Compound 5-22, N-(4-(4-(tert-butyl)phenyl)-5-(3-fluorophenoxy)thiazol-2-yl)-5-nitrothiophene-2-carboxamide] has a viability at 10 µM [1] of 30%, a GI50 [2] of 1.43 µM and an LC50 [2] of 4.03 µM. For the same molecule, the GI50 [3] was 2.5 µM, the LC50 (NCI-60 lethal concentration, 50% net cell loss vs time zero) [3] was 4.27 µM and the GI50 [4] was 2.09 µM. It also gave an LC50 (concentration giving 50% net cell loss versus time zero, NCI-60 definition) [4] of 4.53 µM.

`CCOc1ccc(-c2nc(NC(=O)c3ccc([N+](=O)[O-])s3)sc2Oc2cccc(C(F)(F)F)c2)cc1` [Compound 5-23, N-(4-(4-ethoxyphenyl)-5-(3-(trifluoromethyl)phenoxy)thiazol-2-yl)-5-nitrothiophene-2-carboxamide] gave a viability at 10 µM [1] of 30%, a GI50 [2] of 1.22 µM and an LC50 [2] of 3.96 µM. For the same molecule, the GI50 [3] was 6.42 µM, the GI50 [4] was 2.49 µM and the LC50 (concentration giving 50% net cell loss versus time zero, NCI-60 definition) [4] was 4.43 µM.

In the case of `CCCOc1ccc(-c2nc(NC(=O)c3ccc([N+](=O)[O-])s3)sc2Oc2cccc(F)c2)cc1` [Compound 5-24, N-(5-(3-fluorophenoxy)-4-(4-propoxyphenyl)thiazol-2-yl)-5-nitrothiophene-2-carboxamide], the viability at 10 µM [1] is reported as 28%, the GI50 [2] is reported as 0.95 µM and the LC50 [2] is reported as 2.07 µM. It also gave a GI50 [3] of 1.14 µM, an LC50 (NCI-60 lethal concentration, 50% net cell loss vs time zero) [3] of 4.23 µM and a GI50 [4] of 1.57 µM. It also gave an LC50 (concentration giving 50% net cell loss versus time zero, NCI-60 definition) [4] of 3.79 µM.

`CCCOc1ccc(-c2nc(NC(=O)c3ccc([N+](=O)[O-])s3)sc2Oc2ccc(C(F)(F)F)cc2)cc1` [Compound 5-26, 5-nitro-N-(4-(4-propoxyphenyl)-5-(4-(trifluoromethyl)phenoxy)thiazol-2-yl)thiophene-2-carboxamide] was tested, and the viability at 10 µM [1] was 24%, the GI50 [2] was 0.83 µM and the LC50 [2] was 1.18 µM. The GI50 [3] was 1.05 µM, the LC50 (NCI-60 lethal concentration, 50% net cell loss vs time zero) [3] was 3.44 µM and the GI50 [4] was 1.15 µM. It also gave an LC50 (concentration giving 50% net cell loss versus time zero, NCI-60 definition) [4] of 3.2 µM.

In the case of `CCCOc1ccc(-c2nc(NC(=O)c3ccc([N+](=O)[O-])s3)sc2Oc2ccc(Br)cc2)cc1` [Compound 5-27, N-(5-(4-bromophenoxy)-4-(4-propoxyphenyl)thiazol-2-yl)-5-nitrothiophene-2-carboxamide], the viability at 10 µM [1] is reported as 31%, the GI50 [2] is reported as 0.82 µM and the LC50 [2] is reported as 1.51 µM. The GI50 [3] was 1.23 µM, the LC50 (NCI-60 lethal concentration, 50% net cell loss vs time zero) [3] was 4.87 µM and the GI50 [4] was 1.96 µM. The LC50 (concentration giving 50% net cell loss versus time zero, NCI-60 definition) [4] was 4.74 µM.

Molecule `CCOc1ccc(-c2nc(NC(=O)c3ccc([N+](=O)[O-])s3)sc2Oc2ccc(C(C)(C)C)cc2)cc1` [Compound 5-29, N-(5-(4-(tert-butyl)phenoxy)-4-(4-ethoxyphenyl)thiazol-2-yl)-5-nitrothiophene-2-carboxamide] has a viability at 10 µM [1] of 42%, a GI50 [2] of 1.84 µM and an LC50 [2] of 3.86 µM. The GI50 [3] was 3.34 µM, the LC50 (NCI-60 lethal concentration, 50% net cell loss vs time zero) [3] was 9.95 µM and the GI50 [4] was 3.24 µM. It also gave an LC50 (concentration giving 50% net cell loss versus time zero, NCI-60 definition) [4] of 9.12 µM.

Molecule `CCCOc1ccc(-c2nc(NC(=O)c3ccc([N+](=O)[O-])s3)sc2Oc2ccc(F)cc2)cc1` [Compound 5-30, N-(5-(4-fluorophenoxy)-4-(4-propoxyphenyl)thiazol-2-yl)-5-nitrothiophene-2-carboxamide] has a viability at 10 µM [1] of 40%, a GI50 [2] of 0.92 µM and an LC50 [2] of 2.23 µM. The GI50 [3] was 0.53 µM, the LC50 (NCI-60 lethal concentration, 50% net cell loss vs time zero) [3] was 2.82 µM and the GI50 [4] was 0.7 µM. The LC50 (concentration giving 50% net cell loss versus time zero, NCI-60 definition) [4] was 2.15 µM.

In the case of `O=C(Nc1nc(-c2ccc(F)cc2)c(Oc2ccccc2OC(F)(F)F)s1)c1ccc([N+](=O)[O-])s1` [Compound 5-32, N-(4-(4-fluorophenyl)-5-(2-(trifluoromethoxy)phenoxy)thiazol-2-yl)-5-nitrothiophene-2-carboxamide], the viability at 10 µM [1] is reported as 48%, the GI50 [2] is reported as 0.46 µM and the LC50 [2] is reported as 2.17 µM. The GI50 [3] was 0.4 µM, the LC50 (NCI-60 lethal concentration, 50% net cell loss vs time zero) [3] was 2.26 µM and the GI50 [4] was 0.69 µM. It also gave an LC50 (concentration giving 50% net cell loss versus time zero, NCI-60 definition) [4] of 1.73 µM.

`CCCOc1ccc(-c2nc(NC(=O)c3ccc([N+](=O)[O-])s3)sc2Oc2ccc(C(F)(F)F)cc2Cl)cc1` [Compound 5-38, N-(5-(2-chloro-4-(trifluoromethyl)phenoxy)-4-(4-propoxyphenyl)thiazol-2-yl)-5-nitrothiophene-2-carboxamide] gave a viability at 10 µM [1] of 41%, a GI50 [2] of 0.37 µM and an LC50 [2] of 1.71 µM. For the same molecule, the GI50 [3] was 0.77 µM, the LC50 (NCI-60 lethal concentration, 50% net cell loss vs time zero) [3] was 3.22 µM and the GI50 [4] was 0.57 µM. For the same molecule, the LC50 (concentration giving 50% net cell loss versus time zero, NCI-60 definition) [4] was 1.43 µM.

With `CCCOc1ccc(-c2nc(NC(=O)c3ccc([N+](=O)[O-])s3)sc2Oc2ccc(C#N)cc2)cc1` [Compound 5-39, N-(5-(4-cyanophenoxy)-4-(4-propoxyphenyl)thiazol-2-yl)-5-nitrothiophene-2-carboxamide] the viability at 10 µM [1] was 56%, the GI50 [2] was 0.89 µM and the LC50 [2] was 5.53 µM. The GI50 [3] was 1.49 µM, the LC50 (NCI-60 lethal concentration, 50% net cell loss vs time zero) [3] was 6.54 µM and the GI50 [4] was 0.23 µM. The LC50 (concentration giving 50% net cell loss versus time zero, NCI-60 definition) [4] was 1.16 µM.

Work on `CCCOc1ccc(-c2nc(NC(=O)c3ccc([N+](=O)[O-])o3)sc2Oc2ccccc2)cc1` [Compound 5-48, 5-nitro-N-(5-phenoxy-4-(4-propoxyphenyl)thiazol-2-yl)furan-2-carboxamide] yielded a viability at 10 µM [1] of 37%, a GI50 [2] of 5.22 µM and an LC50 [2] of 9.41 µM. For the same molecule, the GI50 [3] was 1.81 µM and the GI50 [4] was 1.4 µM.

`CCCCOc1ccc(-c2nc(NC(=O)c3ccc([N+](=O)[O-])s3)sc2Oc2ccccc2)cc1` [Compound 5-56, N-(4-(4-butoxyphenyl)-5-phenoxythiazol-2-yl)-5-nitrothiophene-2-carboxamide] gave a viability at 10 µM [1] of 40%, a GI50 [2] of 0.55 µM and an LC50 [2] of 2.31 µM. It also gave a GI50 [3] of 1.54 µM, an LC50 (NCI-60 lethal concentration, 50% net cell loss vs time zero) [3] of 9.32 µM and a GI50 [4] of 0.7 µM. For the same molecule, the LC50 (concentration giving 50% net cell loss versus time zero, NCI-60 definition) [4] was 1.55 µM.

In the case of `CCC(C)(C)c1ccc(Oc2sc(NC(=O)c3ccc([N+](=O)[O-])s3)nc2-c2ccc(F)cc2)cc1` [Compound 5-62, N-(4-(4-fluorophenyl)-5-(4-(tert-pentyl)phenoxy)thiazol-2-yl)-5-nitrothiophene-2-carboxamide], the viability at 10 µM [1] is reported as 45%, the GI50 [2] is reported as 0.45 µM and the LC50 [2] is reported as 1.16 µM. The GI50 [3] was 0.76 µM, the LC50 (NCI-60 lethal concentration, 50% net cell loss vs time zero) [3] was 2.25 µM and the GI50 [4] was 0.59 µM. It also gave an LC50 (concentration giving 50% net cell loss versus time zero, NCI-60 definition) [4] of 1.24 µM.

`CCC(C)(C)c1ccc(-c2nc(NC(=O)c3ccc([N+](=O)[O-])s3)sc2Oc2ccc(F)cc2)cc1` [Compound 5-63, N-(5-(4-fluorophenoxy)-4-(4-(tert-pentyl)phenyl)thiazol-2-yl)-5-nitrothiophene-2-carboxamide] showed a viability at 10 µM [1] of 37%, a GI50 [2] of 0.43 µM and an LC50 [2] of 0.95 µM. For the same molecule, the GI50 [3] was 0.88 µM, the LC50 (NCI-60 lethal concentration, 50% net cell loss vs time zero) [3] was 1.85 µM and the GI50 [4] was 0.68 µM. The LC50 (concentration giving 50% net cell loss versus time zero, NCI-60 definition) [4] was 1.11 µM.

Source: patent publication US11174253B2, “Compound and pharmaceutical composition containing the same” (ALPHALA CO., LTD., priority 2017, dated 2021)
